Assays:
[1] = tested on: extended human kinome (kinase-like proteins); test: Whole cell quantitative proteomics: extended kinome hits; settings: Accession Q16875-4; experiment wp117
[2] = target: T1, protein kinases (human kinome) (Homo sapiens, UniProt Q13163); type: cell-based; settings: experiment wp071
T1 sequence (Q13163 1-448): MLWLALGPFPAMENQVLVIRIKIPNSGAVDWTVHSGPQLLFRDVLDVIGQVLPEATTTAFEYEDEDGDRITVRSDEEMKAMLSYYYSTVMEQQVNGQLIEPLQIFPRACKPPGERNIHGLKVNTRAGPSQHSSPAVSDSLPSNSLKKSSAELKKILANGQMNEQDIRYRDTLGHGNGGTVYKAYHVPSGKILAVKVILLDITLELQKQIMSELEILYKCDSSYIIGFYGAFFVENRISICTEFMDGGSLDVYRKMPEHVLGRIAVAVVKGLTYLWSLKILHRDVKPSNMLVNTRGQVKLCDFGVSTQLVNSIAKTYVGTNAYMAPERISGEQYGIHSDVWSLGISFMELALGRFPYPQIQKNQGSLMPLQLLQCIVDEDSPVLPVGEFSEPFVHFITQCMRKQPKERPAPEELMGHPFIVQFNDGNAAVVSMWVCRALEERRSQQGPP

[3] = target: protein kinases (human kinome) (Homo sapiens, UniProt Q96QT4); type: cell-based; settings: experiment wp107
[4] = target: extended human kinome (kinase-like proteins) (Homo sapiens, UniProt Q9NYY8); test: Whole cell quantitative proteomics: extended kinome hits; settings: Accession Q9NYY8; experiment wp160; 1 hr
[5] = target: protein kinases (human kinome) (Homo sapiens, UniProt P17948); type: cell-based; settings: experiment wp131
[6] = target: protein kinases (human kinome) (Homo sapiens, UniProt P51956); type: cell-based; settings: experiment wp146
[7] = target: protein kinases (human kinome) (Homo sapiens, UniProt P51957); type: cell-based; settings: experiment wp146
[8] = target: protein kinases (human kinome) (Homo sapiens, UniProt Q9UHD2); type: cell-based; settings: experiment wp146

protein kinases (human kinome) (Homo sapiens, UniProt P51957), sequence (P51957 whole entry): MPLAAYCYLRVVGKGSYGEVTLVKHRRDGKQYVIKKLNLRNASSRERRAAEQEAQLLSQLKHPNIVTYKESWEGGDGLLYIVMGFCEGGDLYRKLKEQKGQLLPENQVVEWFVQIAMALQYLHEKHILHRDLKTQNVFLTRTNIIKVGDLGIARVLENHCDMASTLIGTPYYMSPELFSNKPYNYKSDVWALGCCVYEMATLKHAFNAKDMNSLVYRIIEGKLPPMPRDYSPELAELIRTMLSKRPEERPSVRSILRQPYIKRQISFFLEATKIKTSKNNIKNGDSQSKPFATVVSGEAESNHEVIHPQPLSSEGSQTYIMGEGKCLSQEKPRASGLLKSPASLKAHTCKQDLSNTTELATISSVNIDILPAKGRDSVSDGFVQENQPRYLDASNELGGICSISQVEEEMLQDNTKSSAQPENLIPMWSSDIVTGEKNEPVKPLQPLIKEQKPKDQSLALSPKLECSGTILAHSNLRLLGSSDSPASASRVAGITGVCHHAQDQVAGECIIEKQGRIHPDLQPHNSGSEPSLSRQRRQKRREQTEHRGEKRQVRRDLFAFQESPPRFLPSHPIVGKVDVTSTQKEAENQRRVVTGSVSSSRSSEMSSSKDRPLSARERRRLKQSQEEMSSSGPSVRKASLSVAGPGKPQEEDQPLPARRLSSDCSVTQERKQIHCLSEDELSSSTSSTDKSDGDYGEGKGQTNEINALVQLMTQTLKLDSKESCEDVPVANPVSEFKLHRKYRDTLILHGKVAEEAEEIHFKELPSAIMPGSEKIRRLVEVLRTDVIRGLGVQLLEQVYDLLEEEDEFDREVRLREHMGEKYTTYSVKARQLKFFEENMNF
protein kinases (human kinome) (Homo sapiens, UniProt Q96QT4), sequence (Q96QT4 whole entry): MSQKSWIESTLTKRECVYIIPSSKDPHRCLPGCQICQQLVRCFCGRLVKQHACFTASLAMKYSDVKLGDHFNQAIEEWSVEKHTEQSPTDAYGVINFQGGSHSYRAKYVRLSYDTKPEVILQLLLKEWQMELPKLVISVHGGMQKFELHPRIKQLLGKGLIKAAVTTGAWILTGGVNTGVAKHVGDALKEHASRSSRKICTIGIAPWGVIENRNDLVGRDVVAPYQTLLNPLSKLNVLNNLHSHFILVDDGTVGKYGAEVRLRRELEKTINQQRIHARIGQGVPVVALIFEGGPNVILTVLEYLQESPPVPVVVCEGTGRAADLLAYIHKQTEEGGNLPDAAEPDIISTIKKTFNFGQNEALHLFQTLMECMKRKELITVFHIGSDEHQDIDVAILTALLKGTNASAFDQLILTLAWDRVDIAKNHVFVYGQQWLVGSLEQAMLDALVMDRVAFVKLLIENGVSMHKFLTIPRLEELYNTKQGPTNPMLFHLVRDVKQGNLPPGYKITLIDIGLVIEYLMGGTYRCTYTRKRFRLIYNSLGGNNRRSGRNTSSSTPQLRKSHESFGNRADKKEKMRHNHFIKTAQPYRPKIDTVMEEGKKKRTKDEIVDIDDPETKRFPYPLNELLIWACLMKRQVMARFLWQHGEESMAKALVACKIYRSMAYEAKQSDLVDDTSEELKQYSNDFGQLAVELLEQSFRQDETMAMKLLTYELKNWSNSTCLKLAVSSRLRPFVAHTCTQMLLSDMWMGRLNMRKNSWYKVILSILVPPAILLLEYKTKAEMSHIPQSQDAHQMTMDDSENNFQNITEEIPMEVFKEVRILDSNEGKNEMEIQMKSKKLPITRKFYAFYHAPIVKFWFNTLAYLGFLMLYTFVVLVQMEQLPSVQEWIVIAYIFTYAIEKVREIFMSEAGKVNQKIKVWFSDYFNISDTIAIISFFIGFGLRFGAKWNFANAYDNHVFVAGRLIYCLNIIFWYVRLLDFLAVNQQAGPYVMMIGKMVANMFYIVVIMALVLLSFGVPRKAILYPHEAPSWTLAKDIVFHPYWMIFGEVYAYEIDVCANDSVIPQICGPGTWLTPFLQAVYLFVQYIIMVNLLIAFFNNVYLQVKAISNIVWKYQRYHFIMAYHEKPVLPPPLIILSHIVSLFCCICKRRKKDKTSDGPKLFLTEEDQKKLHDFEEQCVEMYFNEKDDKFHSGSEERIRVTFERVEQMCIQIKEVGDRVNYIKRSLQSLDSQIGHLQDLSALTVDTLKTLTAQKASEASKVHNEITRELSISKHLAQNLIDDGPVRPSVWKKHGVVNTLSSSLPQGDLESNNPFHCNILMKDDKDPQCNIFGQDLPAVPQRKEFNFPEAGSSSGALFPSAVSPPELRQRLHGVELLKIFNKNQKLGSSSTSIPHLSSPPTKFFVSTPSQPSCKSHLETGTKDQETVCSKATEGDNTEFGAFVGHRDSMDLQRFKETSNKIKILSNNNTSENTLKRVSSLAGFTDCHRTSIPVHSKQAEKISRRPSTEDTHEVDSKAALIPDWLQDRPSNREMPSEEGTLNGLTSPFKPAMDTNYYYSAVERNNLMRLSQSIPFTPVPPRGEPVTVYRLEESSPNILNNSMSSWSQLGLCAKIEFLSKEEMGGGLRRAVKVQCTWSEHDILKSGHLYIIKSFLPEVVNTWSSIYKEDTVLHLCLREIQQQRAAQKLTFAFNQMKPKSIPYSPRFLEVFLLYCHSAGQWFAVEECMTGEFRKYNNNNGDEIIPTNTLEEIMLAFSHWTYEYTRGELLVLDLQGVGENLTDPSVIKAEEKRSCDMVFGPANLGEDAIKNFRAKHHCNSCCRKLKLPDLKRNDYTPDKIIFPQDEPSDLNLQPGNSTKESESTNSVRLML
protein kinases (human kinome) (Homo sapiens, UniProt P51956), sequence (P51956 whole entry): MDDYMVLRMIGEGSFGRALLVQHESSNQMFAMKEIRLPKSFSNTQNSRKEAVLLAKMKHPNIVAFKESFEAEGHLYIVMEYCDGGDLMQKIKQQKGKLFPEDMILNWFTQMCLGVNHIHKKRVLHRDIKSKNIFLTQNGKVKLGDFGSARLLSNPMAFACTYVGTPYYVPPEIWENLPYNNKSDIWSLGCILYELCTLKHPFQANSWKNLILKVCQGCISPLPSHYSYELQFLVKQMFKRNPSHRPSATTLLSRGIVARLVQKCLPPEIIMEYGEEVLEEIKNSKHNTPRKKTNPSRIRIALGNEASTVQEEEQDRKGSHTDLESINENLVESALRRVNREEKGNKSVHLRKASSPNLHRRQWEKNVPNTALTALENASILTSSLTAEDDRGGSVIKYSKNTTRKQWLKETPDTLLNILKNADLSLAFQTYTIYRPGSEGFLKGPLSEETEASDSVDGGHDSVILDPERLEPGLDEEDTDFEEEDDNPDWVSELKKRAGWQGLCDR
protein kinases (human kinome) (Homo sapiens, UniProt P17948), sequence (P17948 27-1338): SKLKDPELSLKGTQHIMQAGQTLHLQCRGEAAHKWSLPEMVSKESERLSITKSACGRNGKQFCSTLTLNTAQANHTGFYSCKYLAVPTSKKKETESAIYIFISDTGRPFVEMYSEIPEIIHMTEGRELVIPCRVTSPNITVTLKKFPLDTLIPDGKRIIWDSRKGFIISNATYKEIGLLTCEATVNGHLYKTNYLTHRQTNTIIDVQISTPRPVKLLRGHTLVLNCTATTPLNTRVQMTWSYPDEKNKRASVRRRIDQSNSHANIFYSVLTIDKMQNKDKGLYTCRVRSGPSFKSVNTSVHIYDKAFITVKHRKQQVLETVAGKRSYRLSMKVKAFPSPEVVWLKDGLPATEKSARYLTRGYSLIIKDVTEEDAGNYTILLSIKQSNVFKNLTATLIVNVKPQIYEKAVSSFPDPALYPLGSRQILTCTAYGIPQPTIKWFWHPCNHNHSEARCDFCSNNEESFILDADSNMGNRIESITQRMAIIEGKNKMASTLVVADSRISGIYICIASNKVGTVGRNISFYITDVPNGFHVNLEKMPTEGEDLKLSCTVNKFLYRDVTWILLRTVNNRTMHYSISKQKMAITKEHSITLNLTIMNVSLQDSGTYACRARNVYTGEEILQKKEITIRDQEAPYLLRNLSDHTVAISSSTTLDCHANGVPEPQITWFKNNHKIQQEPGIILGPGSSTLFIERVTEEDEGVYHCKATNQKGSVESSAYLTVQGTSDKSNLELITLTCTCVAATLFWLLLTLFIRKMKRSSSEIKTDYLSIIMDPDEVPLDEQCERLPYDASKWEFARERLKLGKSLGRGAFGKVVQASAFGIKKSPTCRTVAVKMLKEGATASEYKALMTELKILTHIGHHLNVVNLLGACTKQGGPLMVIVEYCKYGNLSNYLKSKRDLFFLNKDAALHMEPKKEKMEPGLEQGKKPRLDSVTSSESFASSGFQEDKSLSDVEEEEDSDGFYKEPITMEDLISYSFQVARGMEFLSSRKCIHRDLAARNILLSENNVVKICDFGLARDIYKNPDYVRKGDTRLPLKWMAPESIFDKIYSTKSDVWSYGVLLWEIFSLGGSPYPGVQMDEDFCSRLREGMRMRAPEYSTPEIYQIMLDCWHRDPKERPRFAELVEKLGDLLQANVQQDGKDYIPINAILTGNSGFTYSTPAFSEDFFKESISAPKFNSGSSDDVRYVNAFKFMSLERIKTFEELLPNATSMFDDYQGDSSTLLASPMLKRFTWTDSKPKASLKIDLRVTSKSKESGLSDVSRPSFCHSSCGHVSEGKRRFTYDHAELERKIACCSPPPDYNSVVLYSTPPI

## Cc1ccc(NC(=O)c2cccc(C(F)(F)F)c2)cc1N1Cc2cnc(Nc3ccc(N4CCN(Cc5cn(CCCCCOc6cccc7c6C(=O)N(C6CCC(=O)NC6=O)C7=O)nn5)CC4)nc3)nc2N(C)C1=O (centres unmarked) [DB0646, N-(3-(7-((6-(4-((1-(5-((2-(2,6-Dioxopiperidin-3-yl)-1,3-dioxoisoindolin-4-yl)oxy)pentyl)-1H-1,2,3-triazol-4-yl)methyl)piperazin-1-v)pyridin-3-yl)amino)-1-methyl-2-oxo-1,4-dihydropyrimido[4,5-d]pyrimidin-3(2H)-yl)-4-methylphenyl)-3-(trifluoromethyl)benzamide]
[1]
  logFC PFKFB3: −0.377

## Nc1ncnc2c1c(-c1ccc(Oc3ccccc3)cc1)nn2[C@H]1CC[C@H](N2CCN(CCOCCNC(=O)CNc3cccc4c3C(=O)N(C3CCC(=O)NC3=O)C4=O)CC2)CC1 (some centres unmarked) [SB1.G.181]
[2]; MAP2K5 (Q13163-1)
  logFC: −1.138
[2]
  logFC of MAP2K5 (Q13163-1): −1.138

## CC(C)S(=O)(=O)c1ccccc1Nc1nc(Nc2ccc(N3CCN(CCOCCNC(=O)CNc4cccc5c4C(=O)N(C4CCC(=O)NC4=O)C5=O)CC3)cc2)ncc1Cl (centres unmarked) [SK.3.91]
[3]; direction of change down
  logFC TRPM7 (Q96QT4): −0.3241
[3]; protein TRPM7 (Q96QT4), down
  logFC TRPM7: −0.3241
[4]
  logFC FASTKD2: −1

## CC(C)S(=O)(=O)c1ccccc1Nc1nc(Nc2ccc(N3CCN(CCOCCOCCNC(=O)CNc4cccc5c4C(=O)N(C4CCC(=O)NC4=O)C5=O)CC3)cc2)ncc1Cl (centres unmarked) [TL12.186]
[5]; direction of change down
  logFC FLT1 (P17948-1): −0.699
[5]; protein FLT1 (P17948-1), down
  logFC FLT1: −0.699

## Cc1cc(Nc2ncc(Br)c(Nc3cccc(F)c3C(N)=O)n2)ccc1S(=O)(=O)NCCOCCOCCOCCOCCNc1cccc2c1C(=O)N(C1CCC(=O)NC1=O)C2=O (centres unmarked) [TMX.02.174]
[6]; direction of change down
  logFC NEK3 (P51956): −0.8497
[6]; protein NEK3 (P51956), down
  logFC NEK3: −0.8497
[7]; direction of change down
  logFC NEK4 (P51957): −0.9508
[7]; protein NEK4 (P51957), down
  logFC NEK4: −0.9508
[8]; direction of change down
  logFC TBK1 (Q9UHD2): −0.5951
[8]; protein TBK1 (Q9UHD2), down
  logFC TBK1: −0.5951
